Measured values published in paper PMC12501029, “Discovery of a CNS active GSK3 degrader using orthogonally reactive linker screening” (Nature Communications, 2025).

Key:
[1] = biological target: T1, mouse GSK3β (Mus musculus, UniProt Q9WV60); experiment: Immunoblot degradation in mouse embryonic fibroblast (MEF) cells, 4 h; assay type: cell-based
T1 construct: Immunoblotting based endogenous degradation profile of KH1 (24) in mouse embryonic fibroblast (MEF) cells; host or cells: MEF cells
Experimental: HEK293, HAP1, HAP1 CRBN KO and SH-SY5Y cells were plated in either 6 cm plates or 6-well plates at varying densities (0.5–0.7 × 10^6 cells per plate or wells), and MEF cells were plated in 10 cm plates (1–1.2 × 10^6 cells per plate) depending on experimental set up in respective culturing condition as described above. Stock solutions of compounds were prepared as 10 mM in DMSO (Sigma–Aldrich). Working dilutions were made up fresh in DMSO and culturing media or differentiation media was refreshed prior to any compound treatments. For mode of action studies, cells were pre-treated with inhibitors for 2 h: 1 µM MG132 (Merck, 474790-5 mg), 1 µM MLN4924 (Merck, 5054770001) or 1 µM GSK3 inhibitor (compound 29), before treating with PROTACs for 2, 4 or 24 h as indicated in figure legends. Cells were washed twice with ice-cold PBS (Gibco), harvested in PBS and pelleted, cells were resuspended in RIPA buffer supplemented with complete EDTA-free protease inhibitor cocktail (Roche,11873580001, 1/10 mL) and phosSTOP (Roche, 04906845001, 1 tablet/10 mL) for 20 min lysis on ice then cleared via centrifugation at 16,000 × g, 4 °C for 20 min. […] Following clearance of lysates, protein concentrations were determined by the BCA assay (Fisher Scientific, 23225) or Bradford assay (Bio-rad). […]

[2] = system: GSK3β Ser9 and GSK3β Tyr216 phosphorylation; experiment: GSK3β phosphorylation (Ser9, Tyr216) immunoblot in HEK293 cells; assay type: cell-based, human; settings: 10 nM 24, 27; 10 nM and 1 µM 29; 30 min
Experimental: HEK293, HAP1, HAP1 CRBN KO and SH-SY5Y cells were plated in either 6 cm plates or 6-well plates at varying densities (0.5–0.7 × 10^6 cells per plate or wells), and MEF cells were plated in 10 cm plates (1–1.2 × 10^6 cells per plate) depending on experimental set up in respective culturing condition as described above. Stock solutions of compounds were prepared as 10 mM in DMSO (Sigma–Aldrich). Working dilutions were made up fresh in DMSO and culturing media or differentiation media was refreshed prior to any compound treatments. For mode of action studies, cells were pre-treated with inhibitors for 2 h: 1 µM MG132 (Merck, 474790-5 mg), 1 µM MLN4924 (Merck, 5054770001) or 1 µM GSK3 inhibitor (compound 29), before treating with PROTACs for 2, 4 or 24 h as indicated in figure legends. Cells were washed twice with ice-cold PBS (Gibco), harvested in PBS and pelleted, cells were resuspended in RIPA buffer supplemented with complete EDTA-free protease inhibitor cocktail (Roche,11873580001, 1/10 mL) and phosSTOP (Roche, 04906845001, 1 tablet/10 mL) for 20 min lysis on ice then cleared via centrifugation at 16,000 × g, 4 °C for 20 min. SH-SY5Y cells were lysed in 500 µL ice-cold lysis buffer (25 mM Tris-HCl (pH 7.4), 50 mM NaF, 100 mM NaCl, 1 mM EDTA, 4 mM EGTA, 1% (v/v) Triton-X-100, 0.09% (w/v) sucrose, 10 mM sodium pyrophosphate, 10 mM sodium vanodate, 0.1% (v/v) β-mercaptoethanol, supplemented with complete mini protease inhibitor tablet (Sigma; 1 tablet/ 10 mL buffer)). Lysates were flash frozen, thawed and centrifugated at 16,000 × g, 4 °C for 20 min. Following clearance of lysates, protein concentrations were determined by the BCA assay (Fisher Scientific, 23225) or Bradford assay (Bio-rad). Five to thirty micrograms of protein from lysates were prepared in 4×LDS buffer (Thermo Fisher) and 50 mM dithiothreitol (DTT) denaturated at 95 °C for 5 min. Proteins were separated on NuPAGE 4–12% Bis-Tris gels (Invitrogen) or 4–12% Novex Tris-glycine gels (Invitrogen) in MOPS buffer (Invitrogen) and transferred onto nitrocellulose membranes using an iBlot3 system (Thermo Fisher Scientific) or nitrocellulose membranes (Cytiva) in cold tris-glycine-methanol buffer (25 mM Tris (pH 7.5), 192 mM glycine, 20% (v/v) methanol). Membranes were blocked with either 5% fat-free milk (Marvel) or 1% (w/v) BSA (Sigma) in TBS-T (20 mM Tris (pH 7.5), 150 mM NaCl, 0.1% (v/v) Tween-20 (Sigma)) at room temperature for 30 min, or in the case of SH-SY5Y assays, 1 h, before incubating with primary antibodies overnight at 4 °C on a rocker. […]

[3] = system: GSK3β-HiBiT KI HEK293 cells; experiment: Multiplexed degradation and cell viability assay (Gly-Phe-AFC fluorescence); assay type: cell-based, human; settings: up to 24 h and 1 μM (10 nM, 100 nM, 1 µM; 2, 4, 24 h)
Experimental: For viability tests, GSK3β-HiBiT KI HEK293 cells were seeded onto white-opaque 96-well plates at a density of 2 × 10^4 cells per well. After 16 h, cells were treated with test compounds or DMSO with indicated concentrations for 2, 4 and 24 h. Thirty minutes before the end of treatment, 20 µL of reaction buffer containing Gly-Phe-A FC substrate (1:200 in cell culture media, Chem Cruz, sc506265) added to the each well and cells were returned to cell culture incubator. At the end of the treatment time, HiBiT lytic reagents were prepared according to the manufacturer's instructions (Promega) and 120 µL of reagent dispensed to each well. Fluorescence (viability) and luminescence (degradation) signals were measured by GloMAX discover plate reader (Promega) at the same time. Obtained data analysed using Excel and GraphPad Prism (v10.1.2) as previously described above.

T1 sequence (Q9WV60 whole entry): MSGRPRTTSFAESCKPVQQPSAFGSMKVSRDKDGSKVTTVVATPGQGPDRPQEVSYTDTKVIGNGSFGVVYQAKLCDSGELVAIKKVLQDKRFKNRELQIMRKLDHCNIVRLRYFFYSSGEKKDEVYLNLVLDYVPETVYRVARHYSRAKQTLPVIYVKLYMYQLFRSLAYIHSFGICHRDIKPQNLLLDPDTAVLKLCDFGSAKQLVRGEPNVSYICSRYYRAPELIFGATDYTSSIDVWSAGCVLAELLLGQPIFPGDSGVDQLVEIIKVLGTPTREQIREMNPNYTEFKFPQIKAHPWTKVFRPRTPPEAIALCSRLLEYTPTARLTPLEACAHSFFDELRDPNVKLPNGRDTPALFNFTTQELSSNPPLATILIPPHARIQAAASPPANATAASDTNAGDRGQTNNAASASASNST

Structure (SMILES): Cn1nc(N2CCC(=O)NC2=O)c2ccc(CN3CCN(Cc4ccc(-c5cn(-c6ccc(-c7cn8nccc(C(=O)Nc9cnccc9N9CCOCC9)c8n7)cc6)nn5)nc4)CC3)cc21 [compound 24]
- DC50 [1]: 0.1 to 1 nM
- impact on GSK3β Ser9 or GSK3β Tyr216 phosphorylation prior to degradation [2]: no impact observed
- impact on cell viability [3]: no impact on cell viability
